Where “and” joins values, the source holds several entries; their conditions need not be identical. Identical values can stand only once. Like-named read-outs stand apart in the source and are kept apart here.
How the values were obtained:
[1] = system: OATP1B; experiment: Effect of rifampicin on plasma AUC0-24h of endogenous compounds; assay type: in vivo, human; conditions: for AUC0-24h Geometric Mean Ratio +RIF/Control (90% CI): +RIF600; for AUC0-24h Geometric Mean Ratio Control/Baseline (90% CI): probe cocktail vs placebo day
[2] = assay type: in vivo; conditions: human, plasma, po
[3] = system: OATP1B; experiment: Nonlinear regression of AUCR^-1 vs rifampicin Cmax; assay type: in vivo, human; conditions: from AUCR based on AUC0-24h
[4] = system: OATP1B; conditions: +RIF600
[5] = cited from earlier work

| Molecule | AUC0-24h Geometric Mean Ratio +RIF/Control (90% CI) [1] | fRIF (fraction sensitive to inhibition by rifampicin) [3] | further results |
| --- | --- | --- | --- |
| C[C@H](CCC(=O)NCC(=O)O)[C@H]1CC[C@H]2[C@@H]3CC[C@@H]4C[C@H](OS(=O)(=O)O)CC[C@]4(C)[C@H]3CC[C@]12C [GLCA-S, glycolithocholate‐3‐sulfate] | greater than 2 |  |  |
| C[C@H](CCC(=O)NCC(=O)O)[C@H]1CC[C@H]2[C@@H]3[C@H](O)C[C@@H]4C[C@H](O)CC[C@]4(C)[C@H]3CC[C@]12C [GCDCA, glycochenodexoxycholate] |  |  | AUC0-24h Geometric Mean Ratio Control/Baseline (90% CI) [1]: > 1.25 |
| CO[C@H]1/C=C/O[C@@]2(C)Oc3c(C)c(O)c4c(O)c(c(/C=N/N5CCN(C)CC5)c(O)c4c3C2=O)NC(=O)/C(C)=C\C=C\[C@H](C)[C@H](O)[C@@H](C)[C@@H](O)[C@@H](C)[C@H](OC(C)=O)[C@@H]1C [rifampicin] |  |  | AUC(0-t) ([2]; 150 mg): 19.8 ± 1.2 µM·h; Cmax ([2]; 150 mg): 4.78 ± 0.29 µM; AUC(0-t) ([2]; 300 mg): 55.5 ± 3.4 µM·h; AUC(0-t) ([2]; 600 mg): 141 ± 9 µM·h; Cmax ([2]; 600 mg): 22.8 ± 2.6 µM |
| C[C@H](CCC(=O)O[C@@H]1O[C@H](C(=O)O)[C@@H](O)[C@H](O)[C@H]1O)[C@H]1CC[C@H]2[C@@H]3[C@H](O)C[C@@H]4C[C@H](O)CC[C@]4(C)[C@H]3CC[C@]12C [CDCA-24G, chenodeoxycholate‐24‐glucuronide] |  | 0.801 ± 0.124 | AUC0-24h Geometric Mean Ratio Control/Baseline (90% CI) [1]: > 1.25 and 1.4 |
| C[C@H](CCC(=O)NCC(=O)O)[C@H]1CC[C@H]2[C@@H]3CC[C@@H]4C[C@H](OS(=O)(=O)O)CC[C@]4(C)[C@H]3C[C@H](O)[C@]12C [GDCA-S, glycodeoxycholate‐3‐sulfate] | greater than 2 |  |  |
| O=C(O)CCCCCCCCCCCCCCC(=O)O [HDA, hexadecanedioic acid] |  | 0.776 ± 0.093 |  |
| direct bilirubins [D-BIL] | 2.8 | 0.976 ± 0.180 |  |
| O=C(O)C[C@H](O)C[C@H](O)/C=C/c1c(C2CC2)nc2ccccc2c1-c1ccc(F)cc1 [Pitavastatin, pitavastatin, reference compound] |  | 0.810 ± 0.043 | AUC0-24h Geometric Mean Ratio +RIF/Control (90% CI) [4]: 4.0 |
| C[C@H](CCC(=O)NCCS(=O)(=O)O)[C@H]1CC[C@H]2[C@@H]3CC[C@@H]4C[C@H](OS(=O)(=O)O)CC[C@]4(C)[C@H]3CC[C@]12C [TLCA-S, taurolithocholate‐3‐sulfate] | greater than 2 |  |  |
| CC(C)c1nc(N(C)S(C)(=O)=O)nc(-c2ccc(F)cc2)c1/C=C/[C@@H](O)C[C@@H](O)CC(=O)O [Rosuvastatin, rosuvastatin] |  | 0.702 ± 0.122 | contribution of urinary excretion to the systemic elimination [5]: ca. 20%; AUC0-24h Geometric Mean Ratio +RIF/Control (90% CI) [4]: 2.5 |
| C[C@H](CCC(=O)NCC(=O)O)[C@H]1CC[C@H]2[C@@H]3[C@H](O)C[C@@H]4C[C@H](O[C@@H]5O[C@H](C(=O)O)[C@@H](O)[C@H](O)[C@H]5O)CC[C@]4(C)[C@H]3CC[C@]12C [GCDCA-G, glycochenodeoxycholate‐3‐glucuronide] | ~ 15 | 1 ± 0.08 |  |
| C[C@H](CCC(=O)NCC(=O)O)[C@H]1CC[C@H]2[C@@H]3[C@H](O)C[C@@H]4C[C@H](O)CC[C@]4(C)[C@H]3C[C@H](O)[C@]12C [GCA, glycocholate] |  |  | AUC0-24h Geometric Mean Ratio Control/Baseline (90% CI) [1]: > 1.25 |
| CCCCC(=O)N(Cc1ccc(-c2ccccc2-c2nnn[nH]2)cc1)[C@H](C(=O)O)C(C)C [Valsartan, valsartan, reference compound] |  | 0.831 ± 0.036 | AUC0-24h Geometric Mean Ratio +RIF/Control (90% CI) [4]: 5.5 |
